Drawing on patent publication US20220041647A1, “ESTRA-1,3,5(10)-TRIENE COMPOUNDS CONDENSED IN POSITION 16(17) WITH A PYRAZOLE RING AS INHIBITORS OF 17-HSD1” (FORENDO PHARMA LTD, priority 2018, published 2022), this text covers half-life and inhibition for 16 compounds.

The term inhibition denotes the percentage by which the read-out fell short of the control.

SMILES strings stand for the structures.

The nature of data set [1]: Metabolic stability assay, human hepatocyte incubations. The data set is classed as in vitro ADME. To be noted: compound 1 μM, human hepatocytes, 0-60 min at 37° C.; read-out: Human hepatocytes MetStab T½ min. On the procedure:
Compound stock solutions of the invention were prepared in […]. Final concentration of DMSO was adjusted to 1% in all samples. The in vitro metabolic stability of the compounds of the invention was determined for exemplified compounds using human hepatocyte incubations; study compounds at concentration of 1 μM were incubated 0, 10, 20, 40 and 60 min at 37° C. Samples were collected at all time points and compounds were detected by LC-MS/MS analysis. The percent compound remaining is calculated by comparing the peak area of the parent compound at each time point to time zero. In vitro metabolic stability was determined as half life (T1/2), which was determined by regression analysis of the percent parent disappearance vs. time curve.

Data set [2] concerns the target T1, recombinant human 17β-HSD2 (Homo sapiens, UniProt P37059).
T1 construct: made in house; host or cells: Sd9 (Sf9) insect cells, baculovirus (Bac to Bac Expression System)
T1 sequence (P37059 1-387): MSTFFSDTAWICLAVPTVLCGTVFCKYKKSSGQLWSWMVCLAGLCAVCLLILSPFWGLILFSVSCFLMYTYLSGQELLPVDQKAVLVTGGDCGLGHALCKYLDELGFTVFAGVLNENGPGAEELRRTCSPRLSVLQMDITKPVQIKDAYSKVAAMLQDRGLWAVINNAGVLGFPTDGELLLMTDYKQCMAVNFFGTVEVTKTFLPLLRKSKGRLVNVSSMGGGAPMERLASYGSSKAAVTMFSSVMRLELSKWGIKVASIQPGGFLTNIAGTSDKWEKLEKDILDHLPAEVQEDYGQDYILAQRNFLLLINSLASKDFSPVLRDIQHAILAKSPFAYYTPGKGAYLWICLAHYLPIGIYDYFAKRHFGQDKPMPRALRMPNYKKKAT
Nature of the data set: Inhibition of recombinant human 17β-HSD2 (estradiol to estrone conversion, HPLC/radioactivity). In kind it is biochemical. To be noted: compound 1 μM; 50 nM estradiol, 1 mM NADH, 30 min RT. In outline:
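Membrane extract of Sf9 cells expressing recombinant human 17β-HSD2 (4 μg/ml), in 20 mM KH2PO4 pH 8.5 with 50 nM ^3H-spiked estradiol and 1 mM NADH, 30 min at RT, 1% DMSO. Compound at 1 μM or 0.1 μM; estrone formation by HPLC radioactivity, % inhibition relative to uninhibited conversion.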

For `C[C@]12CCC3c4cccc(F)c4CCC3C1[C@H](CCC(=O)Nc1ncc(F)cc1F)c1c[nH]nc12` (stereo partly drawn) [Compound 9, N-(3,5-difluoropyridin-2-yl)-3-((8aS,12S)-3-fluoro-8a-methyl-1,2,6b,7,8,8a,10,12,12a,12b-decahydronaphtho[2′,1′:4,5]indeno[1,2-c]pyrazol-12-yl)propanamide], in data set [1], the half-life at 1 μM came to 61 min. For the same compound, the inhibition at 1 µM in data set [2] was found to be 3%.
Taken in the same sequence, the figures for `C[C@]12CCC3c4cccc(F)c4CCC3C1[C@H](CCC(=O)Nc1cc(F)ccn1)c1c[nH]nc12` (stereo partly drawn) [Compound 15, 3-((8aS,12S)-3-fluoro-8a-methyl-1,2,6b,7,8,8a,10,12,12a,12b-decahydronaphtho[2′,1′:4,5]indeno[1,2-c]pyrazol-12-yl)-N-(4-fluoropyridin-2-yl)propanamide] were 43 min and 6%.
Taken in the same sequence, the figures for `C[C@]12CCC3c4cccc(F)c4CCC3C1[C@H](CCC(=O)Nc1ccccn1)c1c[nH]nc12` (stereo partly drawn) [Compound 18, 3-((8aS,12S)-3-fluoro-8a-methyl-1,2,6b,7,8,8a,10,12,12a,12b-decahydronaphtho[2′,1′:4,5]indeno[1,2-c]pyrazol-12-yl)-N-(pyridin-2-yl)propanamide] were 41 min and 1%.
Regarding `COc1ccc(NC(=O)CC[C@@H]2c3c[nH]nc3[C@@]3(C)CCC4c5cccc(F)c5CCC4C23)nc1` (stereo partly drawn) [Compound 21, 3-((8aS,12S)-3-fluoro-8a-methyl-1,2,6b,7,8,8a,10,12,12a,12b-decahydronaphtho[2′,1′:4,5]indeno[1,2-c]pyrazol-12-yl)-N-(5-methoxypyridin-2-yl)propanamide], the half-life at 1 μM in data set [1] worked out at 40 min. Also, in data set [2], the inhibition at 1 µM is 4%.
For `C[C@]12CCC3c4cccc(F)c4CCC3C1[C@H](CCC(=O)N1CCNC(=O)C1)c1c[nH]nc12` (stereo partly drawn) [Compound 24, 4-(3-((8aS,12S)-3-fluoro-8a-methyl-1,2,6b,7,8,8a,10,12,12a,12b-decahydronaphtho[2′,1′:4,5]indeno[1,2-c]pyrazol-12-yl)propanoyl)piperazin-2-one], the half-life at 1 μM in data set [1] stood at 33 min. Also, the inhibition at 1 µM in data set [2] worked out at 1%.
Turning to `C[C@]12CCC3c4cccc(F)c4CCC3C1[C@H](CCC(=O)Nc1cc3c([nH]c1=O)CCCC3)c1c[nH]nc12` (stereo partly drawn) [Compound 30, 3-((8aS,12S)-3-fluoro-8a-methyl-1,2,6b,7,8,8a,10,12,12a,12b-decahydronaphtho[2′,1′:4,5]indeno[1,2-c]pyrazol-12-yl)-N-(2-oxo-1,2,5,6,7,8-hexahydroquinolin-3-yl)propanamide], the half-life at 1 μM in data set [1] is 117 min. Besides, in data set [2], the inhibition at 1 µM stood at 3%.
On to `CN(C)C(=O)c1ccc(NC(=O)CC[C@@H]2c3c[nH]nc3[C@@]3(C)CCC4c5cccc(F)c5CCC4C23)nc1` (stereo partly drawn) [Compound 33, 6-(3-((8aS,12S)-3-fluoro-8a-methyl-1,2,6b,7,8,8a,10,12,12a,12b-decahydronaphtho[2′,1′:4,5]indeno[1,2-c]pyrazol-12-yl)propanamido)-N,N-dimethylnicotinamide], for which, in data set [1], the half-life at 1 μM stood at 107 min. Moreover, in data set [2], the inhibition at 1 µM came out at 8%.
Taken in the same sequence, the figures for `CC(C)c1ccc(NC(=O)CC[C@@H]2c3c[nH]nc3[C@@]3(C)CCC4c5cccc(F)c5CCC4C23)nc1` (stereo partly drawn) [Compound 36, 3-((8aS,12S)-3-fluoro-8a-methyl-1,2,6b,7,8,8a,10,12,12a,12b-decahydronaphtho[2′,1′:4,5]indeno[1,2-c]pyrazol-12-yl)-N-(5-isopropylpyridin-2-yl)propanamide] were 37 min and 8%.
For `C[C@]12CCC3c4cccc(F)c4CCC3C1[C@H](CCC(=O)Nc1ccc(N3CCOCC3)cn1)c1c[nH]nc12` (stereo partly drawn) [Compound 39, 3-((8aS,12S)-3-fluoro-8a-methyl-1,2,6b,7,8,8a,10,12,12a,12b-decahydronaphtho[2′,1′:4,5]indeno[1,2-c]pyrazol-12-yl)-N-(5-morpholinopyridin-2-yl)propanamide] the same measures were 67 min and 9%.
Taken in the same sequence, the figures for `CN1CCN(c2ccc(NC(=O)CC[C@@H]3c4c[nH]nc4[C@@]4(C)CCC5c6cccc(F)c6CCC5C34)nc2)CC1` (stereo partly drawn) [Compound 42, 3-((8aS,12S)-3-fluoro-8a-methyl-1,2,6b,7,8,8a,10,12,12a,12b-decahydronaphtho[2′,1′:4,5]indeno[1,2-c]pyrazol-12-yl)-N-(5-(4-methylpiperazin-1-yl)pyridin-2-yl)propanamide] were 47 min and 34%.
Take `COc1ccnc(NC(=O)CC[C@@H]2c3c[nH]nc3[C@@]3(C)CCC4c5cccc(F)c5CCC4C23)c1` (stereo partly drawn) [Compound 48, 3-((8aS,12S)-3-fluoro-8a-methyl-1,2,6b,7,8,8a,10,12,12a,12b-decahydronaphtho[2′,1′:4,5]indeno[1,2-c]pyrazol-12-yl)-N-(4-methoxypyridin-2-yl)propanamide]: the half-life at 1 μM in data set [1] was 34 min. For the same compound, the inhibition at 1 µM in data set [2] stood at 5%.
For `C[C@]12CCC3c4cccc(F)c4CCC3C1[C@H](CCC(=O)Nc1cnccn1)c1c[nH]nc12` (stereo partly drawn) [Compound 51, 3-((8aS,12S)-3-fluoro-8a-methyl-1,2,6b,7,8,8a,10,12,12a,12b-decahydronaphtho[2′,1′:4,5]indeno[1,2-c]pyrazol-12-yl)-N-(pyrazin-2-yl)propanamide] the same measures were 31 min and 1%.
For `Cn1ccc(NC(=O)CC[C@@H]2c3c[nH]nc3[C@@]3(C)CCC4c5cccc(F)c5CCC4C23)n1` (stereo partly drawn) [Compound 54, 3-((8aS,12S)-3-fluoro-8a-methyl-1,2,6b,7,8,8a,10,12,12a,12b-decahydronaphtho[2′,1′:4,5]indeno[1,2-c]pyrazol-12-yl)-N-(1-methyl-1H-pyrazol-3-yl)propanamide] the same measures were 68 min and 8%.
For `C[C@]12CCC3c4cccc(F)c4CCC3C1[C@H](CCC(=O)N1Cc3ccccc3C1)c1c[nH]nc12` (stereo partly drawn) [Compound 57, 3-((8aS,12S)-3-fluoro-8a-methyl-1,2,6b,7,8,8a,10,12,12a,12b-decahydronaphtho[2′,1′:4,5]indeno[1,2-c]pyrazol-12-yl)-1-(isoindolin-2-yl)propan-1-one] the same measures were 58 min and 16%.
As for `COc1ccc(NC(=O)CC[C@@H]2c3c[nH]nc3[C@@]3(C)CCC4c5ccc(F)cc5CCC4C23)nc1` (stereo partly drawn) [Compound 84, 3-((8aS,12S)-4-fluoro-8a-methyl-1,2,6b,7,8,8a,10,12,12a,12b-decahydronaphtho[2′,1′:4,5]indeno[1,2-c]pyrazol-12-yl)-N-(5-methoxypyridin-2-yl)propanamide], the half-life at 1 μM in data set [1] was 148 min. In addition, the inhibition at 1 µM in data set [2] amounted to 2%.
Taken in the same sequence, the figures for `CC(C)c1ccc(NC(=O)CC[C@@H]2c3c[nH]nc3[C@@]3(C)CCC4c5ccc(F)cc5CCC4C23)nc1` (stereo partly drawn) [Compound 87, 3-((8aS,12S)-4-fluoro-8a-methyl-1,2,6b,7,8,8a,10,12,12a,12b-decahydronaphtho[2′,1′:4,5]indeno[1,2-c]pyrazol-12-yl)-N-(5-isopropylpyridin-2-yl)propanamide] were 127 min and 6%.
